Experimental findings from US10023613B2, “Peptidomimetic macrocycles as modulators of MCL-1” (AILERON Therapeutics, Inc., priority 2015, dated 2018) are described below.

This assay deals with Human Raji cells. Format: cell-based. The conditions noted are these: Raji Cell Viability, 48 h, 5% serum. As to the method:
BIM peptidomimetic macrocycles were tested for cell killing at various concentrations. Human Raji cells were treated with increasing doses of peptidomimetic macrocycles corresponding to SEQ ID NO. 763 (FIGS. 1 and 2), 1143 (FIGS. 1-3), and 1621 (FIGS. 3 and 4). An % Viable cells was calculated for each dose of the peptidomimetic macrocycle from a non-linear fit of response vs dose (GraphPad Prism). […]

Molecules are shown by their SMILES. Bridge positions count the residues as written; N and C are the ends. Square brackets hold non-standard residues; d marks the D form. Peptide text beside a SMILES is read from it. R8 = C=CCCCCCC[C@@](C)(N)C(=O)O; S5 = C=CCCC[C@](C)(N)C(=O)O

What is called EC50 is the midpoint of the concentration-response curve. Lower therefore signals greater potency. `CC[C@H](C)[C@H](NC(C)=O)C(=O)N[C@@H](Cc1c[nH]c2ccccc12)C(=O)N[C@H](C(=O)N[C@@H](C)C(=O)N[C@@H](CCC(N)=O)C(=O)N[C@@H](C)C(=O)N[C@@H](CC(C)C)C(=O)N[C@@H](CCCNC(=N)N)C(=O)N[C@]1(C)CCCCCCC=CCCC[C@@](C)(C(=O)N[C@@H](Cc2ccc(O)cc2)C(=O)N[C@@H](Cc2ccc(O)cc2)C(=O)N[C@@H](C)C(N)=O)NC(=O)[C@H](CC(N)=O)NC(=O)[C@H](Cc2ccccc2)NC(=O)[C@H](CCC(=O)O)NC(=O)[C@H](CC(=O)O)NC(=O)CNC(=O)[C@H]([C@@H](C)CC)NC1=O)[C@@H](C)CC` [compound 1647] (Ac-IWIAQALR[R8]IGDEFN[S5]YYA-NH2; staple 9-16): the EC50 was over 40 µM.
